Each structure is given as a SMILES string. Where two headings read alike, the source gives them in different places.

One data set has as its system gingival tissue. Briefly: Local effect on gingival tissue when used in gingival retraction cords. The format is in vivo, patient.
Data set [1] in a line: Reaction with iron-based astringents (ferric salts), formation of colored reaction products. It counts as physicochemical. Conditions: mixed with astringent salts.
For data set [2] the following is noted: cited from earlier work.
Data set [3] has as its system heart rate and blood pressure. Briefly: Systemic effects (heart rate, blood pressure) of retraction cords packed into the gingival sulcus. Conditions: retraction cords packed into a person's gingival sulcus.
In data set [4] the test system is heart rate and blood pressure. Conditions: in vivo.
For data set [5] the following is noted: mixed with ferric salts; cited from earlier work.

With `CNC(C)CC1CCCCC1` (stereo not drawn) [Propylhexedrine, N,α-dimethylcyclohexaneethylamine], the “stiffening and retraction of gingival tissue” value in the data set on gingival tissue (gingival tissue) was “localized stiffening and retraction of gingival tissue”. Also, the vasoconstricting effect result in the data set on gingival tissue (used in gingival retraction cords) was “localized vasoconstricting effect”. Further, in data set [1], the “colored reaction products with astringent salts including ferric salts” value is recorded as “without forming colored reaction products”. For the same molecule, the “volume of water in which 1 gram is dissolvable” value in data set [2] was 500 mL. Also, the “systemic effects: heart rate and blood pressure” value in data set [3] is “does not produce the systemic adrenal effects”.

Regarding `CNC[C@H](O)c1ccc(O)c(O)c1` [epinephrine], the “systemic effects: heart rate and blood pressure” value in data set [4] was “increase a patient's heart rate and blood pressure”. For the same molecule, the “colored reaction products with ferric salts (known)” value in data set [5] is “immediately form purple-colored reaction products”.

The values are drawn from US6375461B1 (Ultradent Products, Inc., priority 2000, dated 2002).
